Measured values from PMC5520944 (Cell Death & Disease, 2017).
Where a name gives a salt, the structure may show the parent alone. Read-outs that look alike come from different tables or passages of the source.

How the values were obtained:
L929sAhFas [1] = assay: cells; set-up: high-content necroptosis screen, percentage PI-positive nuclei as percent of DMSO plus stimulus control
Description: To identify novel inhibitors or regulators of necroptosis, 500 small compounds from libraries targeting autophagy, kinases, phosphatases, proteases and redox balance were screened for their ability to block TNF-induced necroptosis in murine L929sAhFas cells. Three conditions were used to induce necroptosis in L929 cells: TNF alone, TNF+TAK1 inhibitor (TAK1i) and TNF+zVAD-fmk, a pan-caspase inhibitor. Inhibition of TAK1 or caspases sensitizes to necroptosis.[13], [32] Necroptosis, measured as the percentage of PI-positive nuclei normalized to the plate-specific DMSO control, was determined for each compound (Supplementary Figure 1A). […] After compound treatment, L929sAhFas (a) or L929 (b) cells were stimulated with mTNF (T), mTNF+Tak1i (TiT) or mTNF+zVAD (zVT) (Supplementary Figure 1A and B). (a) Cell death percentage (% PI-positive nuclei) or cell loss was calculated as percent of control (DMSO+stimulus). […] (b) Cell loss (luminescence-based readout for ATP) was calculated as percent of control (DMSO+stimulus). […] In stimulated conditions, % PI-positive nuclei was determined as % of DMSO control. Data represent mean values±S.E.M. of two independent experiments. Cells were stained with Hoechst and PI and percentage PI-positive nuclei was determined using high-content image analysis (BD pathway Bioimager). (d) L929sAhFas cells were treated with Sorafenib (concentration as indicated) for 24 h. Then, stimulus was removed, 50 cells/condition seeded and colonies counted with crystal violet staining after 10 days incubation. […] Schemes of workflow screening assays in L929 cell lines. (A) Scheme of the workflow of a high-content screening assay on L929sAhFas cells using mTNF (T) and mTNF+Tak1i ((5Z)-7-Oxozeaenol) (TiT) to induce necroptotic cell death. Nec-1 and zVAD-fmk were used as protective and sensitizing benchmarks, respectively, on all plates. (B) Scheme of the workflow of a CellTiter-Glo luminescent cell viability screening assay on L929 cells using mTNF+zVAD (zVT) to induce necroptotic cell death. Supplementary Figure S2. Z’ calculation for cell death screening assays in L929 cells. (A) Z’ calculation for cell death screening assay (Fig. 1A) in mTNF-stimulated L929sAhFas cells. (B) Z’ calculation for cell death screening assay (Fig. 1A) in L929sAhFas cells stimulated with mTNF + Taki.

L929sAhFas [2] = assay: cells; set-up: high-content necroptosis screen, percentage PI-positive nuclei as percent of DMSO plus stimulus control; conditions: mTNF-induced cell death, validation screen; read-out: Validation screen IC50 (µM) (TNF)
Description: To identify novel inhibitors or regulators of necroptosis, 500 small compounds from libraries targeting autophagy, kinases, phosphatases, proteases and redox balance were screened for their ability to block TNF-induced necroptosis in murine L929sAhFas cells. Three conditions were used to induce necroptosis in L929 cells: TNF alone, TNF+TAK1 inhibitor (TAK1i) and TNF+zVAD-fmk, a pan-caspase inhibitor. Inhibition of TAK1 or caspases sensitizes to necroptosis.[13], [32] Necroptosis, measured as the percentage of PI-positive nuclei normalized to the plate-specific DMSO control, was determined for each compound (Supplementary Figure 1A). Z’ values for the TNF- and TNF+TAK1i-induced cell death assay were 0.498 and 0.919, respectively (Supplementary Figures 2A and B), indicating good assay performance. Sorafenib was identified as an effective inhibitor of both TNF- and TNF+TAK1i-induced necroptosis (Figure 1a). […] In an independent screening with 437 FDA-approved drugs and TNF+zVAD-fmk as necroptosis trigger in L929 cells (Supplementary Figure 1B), Sorafenib was also shown to be a potent inhibitor (Figure 1b). […] After compound treatment, L929sAhFas (a) or L929 (b) cells were stimulated with mTNF (T), mTNF+Tak1i (TiT) or mTNF+zVAD (zVT) (Supplementary Figure 1A and B). (a) Cell death percentage (% PI-positive nuclei) or cell loss was calculated as percent of control (DMSO+stimulus). Green points marked by the green dotted line represent a selection of kinase inhibitors from the screening on L929sAhFas cells (Supplementary Table 1), that are only slightly protective in the TNF-stimulated condition. (b) Cell loss (luminescence-based readout for ATP) was calculated as percent of control (DMSO+stimulus). […] In stimulated conditions, % PI-positive nuclei was determined as % of DMSO control. Data represent mean values±S.E.M. of two independent experiments. Cells were stained with Hoechst and PI and percentage PI-positive nuclei was determined using high-content image analysis (BD pathway Bioimager). (d) L929sAhFas cells were treated with Sorafenib (concentration as indicated) for 24 h. Then, stimulus was removed, 50 cells/condition seeded and colonies counted with crystal violet staining after 10 days incubation. Quantification was performed using ImageJ. n=2, a representative experiment is shown Legends supplementary figures Supplementary Figure S1. Schemes of workflow screening assays in L929 cell lines. (A) Scheme of the workflow of a high-content screening assay on L929sAhFas cells using mTNF (T) and mTNF+Tak1i ((5Z)-7-Oxozeaenol) (TiT) to induce necroptotic cell death. Nec-1 and zVAD-fmk were used as protective and sensitizing benchmarks, respectively, on all plates. (B) Scheme of the workflow of a CellTiter-Glo luminescent cell viability screening assay on L929 cells using mTNF+zVAD (zVT) to induce necroptotic cell death. Supplementary Figure S2. Z’ calculation for cell death screening assays in L929 cells. (A) Z’ calculation for cell death screening assay (Fig. 1A) in mTNF-stimulated L929sAhFas cells. (B) Z’ calculation for cell death screening assay (Fig. 1A) in L929sAhFas cells stimulated with mTNF + Taki.

[3] = read-out: cell death TNF/Taki (POC)

Compound | activity at 10 µM (L929sAhFas [1]; read-out: cell death TNF (POC)) [%] | activity at 10 µM (L929sAhFas [1]; [3]) [%] | IC50 (L929sAhFas [2]) [µM]
N#CC(C#N)=C(N)/C(C#N)=C/c1ccc(O)cc1 [Tyrphostin AG112] | 89.4 | 98.7 | –
N#C/C(=C\c1ccc(O)c(O)c1)C(=O)Nc1ccccc1 [AG-494] | 58.6 | 95.8 | 32.3
Cc1cc2ncc(-c3ccccc3)nc2cc1C [TYRPHOSTIN AG 1295] | 93.6 | 100 | –
CC(C)(C)c1cc(C=C(C#N)C#N)cc(C(C)(C)C)c1O [TYRPHOSTIN 9] | 41.8 | 95.8 | 4.45
O=P(O)(O)C(O)c1ccc2ccccc2c1 (centres unmarked) [HNMPA] | 80.3 | 100 | –
O=c1c(O)c(-c2ccc(O)c(O)c2)oc2cc(O)cc(O)c12 [Quercetin·2H2O] | 90.4 | 98.5 | –
Cc1ccc(-c2nn(C(C)(C)C)c3ncnc(N)c23)cc1 [PP1] | 114 | 100 | –
N#CC(C#N)=C(N)/C(C#N)=C/c1cc(O)c(O)c(O)c1 [TYRPHOSTIN 51] | 116 | 101 | –
c1ccc2c(-c3ccncc3)c[nH]c2c1 [Rockout] | 106 | 99 | –
Oc1ccc(-c2nc(-c3ccc(F)cc3)c(-c3ccncc3)[nH]2)cc1 [SB-202190] | 110 | 96.3 | –
COc1cc2ncnc(Nc3cccc(Cl)c3)c2cc1OC [TYRPHOSTIN AG 1478] | 84.2 | 98.7 | –
N#CC(C#N)=Cc1ccc(O)c(O)c1 [TYRPHOSTIN 23] | 88.9 | 100 | –
CC(C)(C)n1nc(-c2ccc(Cl)cc2)c2c(N)ncnc21 [PP2] | 127 | 100 | –
O=c1cc(N2CCOCC2)oc2c(-c3ccccc3)cccc12 [LY 294002] | 85.7 | 99.2 | –
O=C1Nc2ccccc2/C1=C1/Nc2ccccc2C1=O [Indirubin] | 91.7 | 99.1 | –
COc1cccc(-c2cc(=O)c3ccccc3o2)c1N [PD-98059] | 70.9 | 98.9 | –
O=C(O)c1ccc2nc(-c3ccccc3)c(-c3ccccc3)nc2c1 [BML-257] | 91.3 | 99.7 | –
N#CC(=Cc1ccc2[nH]ccc2c1)C(N)=C(C#N)C#N [AG-370] | 86 | 99.7 | –
COc1cc(/C=C(\C#N)C(N)=O)cc(CSc2nc3ccccc3s2)c1O [AG-825] | 80.1 | 99.4 | –
C=CC(=O)c1ccc2ccccc2c1 [ZM 449829] | 87.3 | 99.6 | –
C#Cc1cccc(Nc2ncnc3cc(OC)c(OC)cc23)c1 [BML-265] | 118 | 99.6 | –
N#C/C(=C\c1ccc(O)c(O)c1)C(N)=S [TYRPHOSTIN 47] | 93 | 100 | –
O=C(O)c1cc(N(Cc2ccccc2O)Cc2cc(O)ccc2O)ccc1O [Lavendustin A] | 85.9 | 100 | –

Compound | activity at 10 µM (L929sAhFas [1]; read-out: cell death TNF (POC)) [%] | activity at 10 µM (L929sAhFas [1]; [3]) [%] | IC50 (L929sAhFas [2]) [µM]
Cc1ccc(NC(=O)c2ccc(CN3CCN(C)CC3)cc2)cc1Nc1nccc(-c2cccnc2)n1 [Imatinib mesylate] | 63.9 | 96.1 | –
CC1=C(O)C(=O)[C@@H]2O[C@@H]2C1=O [Terreic acid] | 104 | 99.1 | –
N#CC(=C(/N)Sc1ccccc1N)/C(C#N)=C(\N)Sc1ccccc1N [U-0126] | 69.7 | 98.7 | –
COC[C@H]1OC(=O)c2coc3c2[C@@]1(C)C1=C(C3=O)[C@@H]2CCC(=O)[C@@]2(C)C[C@H]1OC(C)=O [Wortmannin] | 99.4 | 101 | –
C[S+]([O-])c1ccc(-c2nc(-c3ccc(F)cc3)c(-c3ccncc3)[nH]2)cc1 (centres unmarked) [SB-203580] | 108 | 99.6 | –
O=C1Nc2ccc(I)cc2/C1=C/c1cc(Br)c(O)c(Br)c1 [GW 5074] | 90 | 99.1 | –
N#CC(C#N)=Cc1cc(O)c(O)c([N+](=O)[O-])c1 [TYRPHOSTIN AG 1288] | 81.1 | 99.7 | –
C/C(O)=C(\C#N)C(=O)Nc1cc(Br)ccc1Br [LFM-A13] | 93.5 | 100 | –
CCN(CC)CCNC(=O)c1c(C)[nH]c(/C=C2\C(=O)Nc3ccc(Cl)cc32)c1C [SU11652] | 194 | 104 | –
C[C@@H](N)[C@H]1CC[C@H](C(=O)Nc2ccncc2)CC1 [Y-27632·2HCl] | 93.3 | 98.6 | –
N#C/C(=C\c1ccc(O)c(O)c1)C(N)=O [TYRPHOSTIN 46] | 97.8 | 99.8 | –
Cc1ccc(NC(=O)c2cccc(N(C)C)c2)cc1NC(=O)c1ccc(O)cc1 [ZM 336372] | 81.9 | 99.4 | –
Nc1ncnc2c1c(I)cn2[C@@H]1O[C@H](CO)[C@@H](O)[C@H]1O [5-Iodotubercidin] | 229 | 101 | –
O=S(=O)(c1cccc2c(I)cccc12)N1CCCNCC1 [ML-7·HCl] | 90.2 | 99.4 | –
Cn1cnc(N)c2ncnc1-2 [3-Methyladenine] | 88.7 | 102 | –
O=S(=O)(c1cccc2c(Cl)cccc12)N1CCCNCC1 [ML-9·HCl] | 84.8 | 99.8 | –
O=C1Cc2c([nH]c3ccc(Br)cc23)-c2ccccc2N1 [Kenpaullone] | 162 | 99.9 | –
CC(C)c1cc(/C=C(\C#N)C(=O)NCCCc2ccccc2)cc(C(C)C)c1O [SU1498] | 91.7 | 99.2 | –
O=c1c(-c2ccc(O)cc2)coc2cc(O)cc(O)c12 [Genistein] | 86.1 | 99.3 | –
N#CC(C#N)=Cc1ccc([N+](=O)[O-])c(O)c1 [AG-126] | 94.7 | 99.4 | –
N#CC(C#N)=Cc1cc(O)c(O)c(O)c1 [TYRPHOSTIN 25] | 90 | 100 | –
N#C/C(=C\c1cc(Cl)cc(Cl)c1)c1cccnc1 [RG-14620] | 95.9 | 99.8 | –
